For one experiment, the system named is LNCaP and PC-3 cells. The experiment is described as follows: MTT viability assay, one value stated for both prostate cancer lines. Type of experiment: cell-based. To be noted: for IC50: Homo sapiens, MTT, serum-free medium, one value for LNCaP and PC-3, read-out: IC50, antiproliferative effect / viability; for potency relative to parent tocopherol: Ser-473-Akt dephosphorylation and viability of prostate cancer cells. The protocol: (§1) The prostate cancer cell lines, LNCaP and PC-3, were purchased from American Type Culture Collection (Manassas, Va.) and maintained in RPMI 1640 medium containing 10% heat-inactivated fetal bovine serum at 37° C. in a humidified incubator containing 5% CO2. The LNCaP-abl cells were a generous gift from Dr. Qianben Wang (The Ohio State University). Normal prostate epithelial cells were purchased from Lonza (Walkersville, Md.) and were cultured in the vendor-recommended defined prostate epithelial cell growth medium. For experiments, LNCaP cells were plated on poly-D-lysine-coated culture flasks at a density of 12,000 cells per cm^2 surface area for 24 hours, followed by treatment with test agents in serum-free RPMI 1640 medium. The α- and γ-tocopherols were purchased from Sigma-Aldrich (St. Louis, Mo.). The tocopherol derivatives, α- and γ-VE5, were synthesized by the inventors.
(§2) LNCaP cells were plated into poly-D-lysine-coated 96-well plates and PC-3 and LNCaP-abl cells into uncoated plates at the density of 5,000 cells per well in the presence of 10% FBS. Normal prostate epithelial cells were plated into uncoated plates at a density of 8,000 cells per well. Exposure to test agents in serum-free medium was initiated 24 hours later. After 24 hours of treatment, cells were incubated with MTT [3-(4,5-dimethylthiazol-2-yl)-2,5-diphenyl-2H-tetrazolium bromide] (TCI America; 0.5 mg/ml, final concentration) for an additional 2 hours. The medium was then removed from each well and replaced with DMSO to dissolve the reduced MTT dye for subsequent colorimetric measurement of absorbance at 595 nm. Cell viabilities are calculated as percentages of that in the corresponding vehicle-treated control group.

In experiment [1] the test system is Normal prostate epithelial cells. The experiment is described as follows: Viability / apoptosis in normal prostate epithelial cells. The experiment is classed as cell-based. To be noted: Epithelial cell. As to the method: as §1, §2
Experiment [2] addresses T1, PH domain of PDK1 (GST-PH domain fusion protein) (Homo sapiens, UniProt O15530).
T1 construct: made in house
T1 sequence (O15530 459-550 limits assumed): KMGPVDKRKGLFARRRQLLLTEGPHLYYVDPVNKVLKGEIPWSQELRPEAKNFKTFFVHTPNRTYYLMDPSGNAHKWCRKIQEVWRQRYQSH
The experiment is described as follows: Surface plasmon resonance binding, PDK1 PH domain. Particulars: SPR; means (n = 3) ± SD; read-out: Kd, PDK1 PH domain. From the text:
(§3) The cDNA fragments corresponding to the putative PH domain sequences of PHLPP1 (+115 to +372), PDK1 (+1225 to +1671), Akt1 (+1 to +447) and ILK (+538 to +646) were PCR-amplified using the plasmids pcDNA-HA-PHLPP1, pWZL-Neo-Myr-FLAG-PDPK1, pcDNA-HA-PKB-T308D-S473D, and pCMV-SPORT-ILK (Addgene) as templates. The PCR products were then cloned into EcoRI/XhoI sites of the pGEX-4T1 expression vector (GE Healthcare Life Sciences) to generate four constructs (pGEX-4T1-PHLPP1, pGEX-4T1-PDPK1, pGEX-4T1-AKT1, pGEX-4T1-ILK) for the expression of GST-PH domain fusion proteins. The mutated Akt1 Y38G PH domain was generated from pGEX-4T1-AKT1 by site-directed mutagenesis using the QuikChange II XL Site-Directed Mutagenesis Kit (Agilent Technologies). The expression and purification of GST-PH domain fusion proteins were performed essentially as described previously. Thomas et al., Curr Biol 12, 1256 (2002). The purified PH domains were analyzed by SDS-PAGE using an overloaded gel with purities were estimated to be >95% using ImageJ software.
(§4) Binding experiments were performed using a Biacore T100 system (GE Healthcare, Piscataway, N.J.). The GST-PH domain fusion proteins were immobilized on a CM5 S Sensorchip using Biacore's Amine Coupling Kit to a level of 17,000 response units. VE5 compounds and di-octanoyl PIP3 at concentrations ranging from 0.1 to 100 μM and 1 to 20 μm, respectively, were injected at a high flow rate (30 μL/min) over the biosensor surface for binding analyses. DMSO concentrations in all samples and running buffer were 1% (v/v) or less. Data were analyzed using Biacore T100 Evaluation Software.

Experiment [3] deals with T2, PH domain of ILK (GST-PH domain fusion protein) (Homo sapiens, UniProt Q13418).
T2 construct: made in house
T2 sequence (Q13418 180-212 limits assumed): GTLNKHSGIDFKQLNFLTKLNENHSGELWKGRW
The experiment in a line: Surface plasmon resonance binding, ILK PH domain. Particulars: SPR; means (n = 3) ± SD; read-out: Kd, ILK PH domain.
Source text: as §3, §4

Another experiment addresses T3, Akt1 Y38G PH domain (Homo sapiens, UniProt P31749, Y38G).
T3 construct: made in house
The experiment in a line: Surface plasmon resonance binding, Akt-Y38G PH domain mutant. To be noted: SPR, P < 0.05 vs. Akt.
Source text: as §3
Binding experiments were performed using a Biacore T100 system (GE Healthcare, Piscataway, N.J.). The GST-PH domain fusion proteins were immobilized on a CM5 S Sensorchip using Biacore's Amine Coupling Kit to a level of 17,000 response units. […] Data were analyzed using Biacore T100 Evaluation Software.

Experiment [4] concerns mTORC2 (mTOR, rictor, SGK, PKCα). The experiment in a line: Western blot of mTORC2 components and downstream targets. Type of experiment: cell-based. The protocol:
Cells were exposed to the test agents in 10-cm dishes for 24 hours and then collected by scraping. The cell pellets were washed once with PBS, and then lysed at 4° C. over 30 min of incubation in a sodium dodecyl sulfate (SDS) lysis buffer containing 1% SDS, 50 mM Tris HCl (pH 8.1), 10 mM EDTA and […] protease inhibitor cocktail (Sigma-Aldrich). The cell debris was pelleted by centrifugation for 20 min at 14,000×g, and 1 μl of each supernatant was used for determination of protein concentration using a colorimetric bicinchoninic assay (Pierce, Rockford, Ill.). The remaining sample was added to equal volume of 2×SDS-polyacrylamide gel electrophoresis sample loading buffer (62.5 mM Tris-HCl, pH 6.8, 4% SDS, 5% β-mercaptoethanol, 20% glycerol, 0.1% bromophenol blue), followed by incubation in boiling water for 5 min. Equivalent amounts of total protein were resolved in SDS-polyacrylamide gels, and then transferred to nitrocellulose membranes using a semidry transfer cell. The transblotted membrane was washed twice with Tris-buffered saline containing 0.1% Tween 20 (TBST). After blocking with TBST containing 5% nonfat milk for 40 min, the membrane was incubated with the appropriate primary antibody (1:1000) in TBST-1% nonfat milk at 4° C. overnight. The membrane was then washed three times with TBST for a total of 15 min, followed by incubation with goat anti-rabbit or anti-mouse IgG-horseradish peroxidase conjugates (1:2000) for 1 hour at room temperature and four washes with TBST for a total of 1 hour. The immunoblots were visualized by enhanced chemiluminescence (GE Healthcare Life Sciences).

T3 sequence (P31749 5-108 Y38G limits assumed): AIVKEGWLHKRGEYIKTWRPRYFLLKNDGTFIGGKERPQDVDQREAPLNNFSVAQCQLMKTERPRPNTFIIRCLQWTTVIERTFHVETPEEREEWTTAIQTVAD

Turning to `Cc1c(O)cc2c(c1C)O[C@](C)(CCCC(C)C)CC2` [γ-VE5, (R)-2,7,8-trimethyl-2-(4-methylpentyl)-chroman-6-ol], the IC50 is 7 to 10 µM with LNCaP and PC-3 cells; about 40 µM in experiment [1]. Further, the results for the Kd (in experiment [2]; in experiment [3]; at Akt1 Y38G PH domain) were 12.4 ± 0.1 µM, 18.7 ± 4.5 µM and 0.49 ± 0.02 µM, respectively. Also, the “abundance or phosphorylation of mTORC2 components and targets (mTOR, rictor, SGK, PKCα)” value in experiment [4] was “lack of changes”.

With `Cc1c(C)c2c(c(C)c1O)CC[C@@](C)(CCCC(C)C)O2` [α-VE5, (R)-2,5,7,8-tetramethyl-2-(4-methylpentyl)-chroman-6-ol], the IC50 was 15 to 20 µM with LNCaP and PC-3 cells; about 50 µM in experiment [1]. Further, the “potency relative to parent tocopherol” value in the experiment on LNCaP and PC-3 cells was determined as 50 fold; with LNCaP and PC-3 cells (listed as a-VE5), 10 fold. For the same compound, the Kd in experiment [2] came to 19.3 ± 0.6 µM; in experiment [3] it was 26.6 ± 1 µM; on Akt1 Y38G PH domain it was 0.48 ± 0.13 µM. Besides, the “abundance or phosphorylation of mTORC2 components and targets (mTOR, rictor, SGK, PKCα)” value in experiment [4] was “lack of changes”.

The record behind these values is patent US20140031388A1, “AKT INACTIVATION BY TOCOPHERYL DERIVATIVES” (priority 2012, published 2014).
